# Reference: PMC10918664, “New Triazole-Based Potent Inhibitors of Human Factor XIIa as Anticoagulants” (ACS Omega, 2024)
# Where two headings read alike, the source gives them in different places.
# Key:
# thrombin (factor IIa) [1] = molecular target: T1, thrombin (factor IIa) (Homo sapiens, UniProt P00734); design: method as in PMID 36321236; conditions: previously reported inhibitor, in figure; read-out: FIIa IC50; cited from earlier work
# T1 construct: The prothrombinase complex converts prothrombin (FII) to thrombin (FIIa); purchased Haematologic Technologies (Essex Junction, VT); host or cells: human plasma
# human FXIIa = molecular target: T2, human FXIIa (Homo sapiens, UniProt P00748); assay: Direct inhibition of human FXIIa, chromogenic substrate hydrolysis assay; conditions: for HS (Hill slope) / ΔY (%) efficacy of inhibition: pH 7.4, 37 °C; for significant inhibitory activity against FXIIa in the screening: at 200 μM; for subclass of inhibitor based on selectivity studies: versus thrombin, FIXa, FXa, FXIa
# T2 sequence (P00748 373-615 limits assumed): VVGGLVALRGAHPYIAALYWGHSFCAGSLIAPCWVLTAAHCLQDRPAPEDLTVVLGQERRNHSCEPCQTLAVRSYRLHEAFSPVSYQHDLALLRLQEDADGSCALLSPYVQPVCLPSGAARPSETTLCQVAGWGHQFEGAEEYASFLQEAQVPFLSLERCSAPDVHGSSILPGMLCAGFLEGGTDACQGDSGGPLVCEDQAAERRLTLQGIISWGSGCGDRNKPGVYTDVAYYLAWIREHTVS
# T2 sequence (P00748 20-372 partner limits assumed): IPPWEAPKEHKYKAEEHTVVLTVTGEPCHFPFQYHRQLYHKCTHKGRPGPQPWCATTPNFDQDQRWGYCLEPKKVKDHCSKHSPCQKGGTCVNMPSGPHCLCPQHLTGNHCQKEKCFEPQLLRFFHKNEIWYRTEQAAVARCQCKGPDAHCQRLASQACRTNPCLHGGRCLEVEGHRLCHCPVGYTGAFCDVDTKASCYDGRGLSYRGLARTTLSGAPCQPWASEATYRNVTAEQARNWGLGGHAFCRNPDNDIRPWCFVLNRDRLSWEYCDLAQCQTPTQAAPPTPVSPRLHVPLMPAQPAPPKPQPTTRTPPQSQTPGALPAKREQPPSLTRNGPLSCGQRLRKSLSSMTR
# Experimental: The slope of the resulting line corresponds to the residual enzyme activity, and the change in residual enzyme activity, relative to the concentration of the inhibitor, is plotted and fitted using the logistic eq 1. […] In this setup, each well of the 96-well microplate contained 175 μL of pH 7.4 TrisHCl buffer, to which 5 μL of potential inhibitors (or vehicle) and 5 μL of human FXIIa (stock concentration: 200 nM) were added sequentially. […] The relative residual FXIIa activity at each inhibitor concentration was computed by comparing the FXIIa activity in the absence and presence of the inhibitor. To obtain the potency (IC50) and efficacy (ΔY) of inhibition, the dose dependence of residual FXIIa activity was fitted to the logistic eq 1.
# human plasma [2] = tested on: human plasma; design: method as in PMID 36321236; conditions: previously reported inhibitor, in figure; read-out: APTT (EC×1.5); cited from earlier work
# FIXa = molecular target: T3, FIXa (Homo sapiens, UniProt P00740); assay: Inhibition of FIXa, chromogenic substrate hydrolysis assay; assay type: biochemical; conditions: for IC50: FIXa, pH 7.4, 37 °C
# T3 construct: purchased Haematologic Technologies (Essex Junction, VT); host or cells: human plasma
# Experimental: (§1) The selectivity was evaluated against thrombin and factors IXa, Xa, and XIa.
# (§2) These assays were performed by using substrates and conditions appropriate for the enzyme being studied. To conduct selectivity analysis, various concentrations of the inhibitors were utilized, and the residual enzyme activity was assessed at each concentration. […] This allowed for the determination of the corresponding IC50 and efficacy of the enzyme–inhibitor complex. The KM of the chromogenic substrate with its enzyme was employed to ascertain the concentration of the chromogenic substrate used in the inhibition studies.
# FXIa = molecular target: T4, FXIa (Homo sapiens, UniProt P03951); assay: Inhibition of FXIa, chromogenic substrate hydrolysis assay; assay type: biochemical; conditions: for IC50: pH 7.4, 37 °C; for selectivity index (IC50 enzyme/IC50 FXIIa): FXIa over FXIIa
# T4 construct: purchased Haematologic Technologies (Essex Junction, VT); host or cells: human plasma
# Experimental: as §1, §2
# human plasma [3] = assay: Activated partial thromboplastin time (APTT) clotting assay; assay type: biochemical
# Experimental: The APTT assay is employed to assess the impact of a new potential anticoagulant on clotting driven by the contact/intrinsic pathway, involving FIXa, FXIa, and FXIIa. Conversely, the PT assay is utilized to gauge the impact of the new potential anticoagulant on the extrinsic pathway of coagulation, which includes FVIIa. […] In the PT assay, thromboplastin-D was created by adding 4 mL of distilled water, and the resulting mixture was warmed to 37 °C. […] Upon the addition of 200 μL of prewarmed thromboplastin-D reagent, the clotting time was recorded. In the APTT assay, 90 μL of citrated human plasma was combined with 10 μL of the molecule of interest (or the vehicle) and 100 μL of prewarmed 0.2% ellagic acid. Following a 4 min incubation at 37 °C, clotting was initiated by introducing 100 μL of prewarmed 0.025 M CaCl2, and the clotting time was recorded. In both assays, approximately nine or more concentrations of molecules were employed to generate concentration vs effect profiles. The data were then plotted against a quadratic trendline, enabling the estimation of the concentration required to double the clotting time. Clotting times were similarly measured using 10 μL of highly purified water (negative control). The positive controls used in APTT and PT assays were (1) UFH, antithrombin activator; (2) argatroban, a clinically used thrombin inhibitor; (3) rivaroxaban, a clinically used FXa inhibitor; and (4) C6B7, a monoclonal antibody FXIIa inhibitor.
# FXa = molecular target: T5, FXa (Homo sapiens, UniProt P00742); assay: Inhibition of FXa, chromogenic substrate hydrolysis assay; assay type: biochemical
# T5 construct: purchased Haematologic Technologies (Essex Junction, VT); host or cells: human plasma
# Experimental: as §1, §2
# thrombin (factor IIa) [4] = molecular target: T1, thrombin (factor IIa); assay: Inhibition of thrombin, chromogenic substrate hydrolysis assay; assay type: biochemical; conditions: for HS (Hill slope) / ΔY (%) / IC50: thrombin; for selectivity index (IC50 enzyme/IC50 FXIIa): thrombin over FXIIa; for IC50: pH 7.4, 37 °C
# Experimental: as §1, §2
# human plasma [5] = assay: Prothrombin time (PT) clotting assay; assay type: biochemical; conditions: highest concentration of 2500 μM
# Experimental: The APTT assay is employed to assess the impact of a new potential anticoagulant on clotting driven by the contact/intrinsic pathway, involving FIXa, FXIa, and FXIIa. Conversely, the PT assay is utilized to gauge the impact of the new potential anticoagulant on the extrinsic pathway of coagulation, which includes FVIIa. […] In the PT assay, thromboplastin-D was created by adding 4 mL of distilled water, and the resulting mixture was warmed to 37 °C. […] Upon the addition of 200 μL of prewarmed thromboplastin-D reagent, the clotting time was recorded. In the APTT assay, 90 μL of citrated human plasma was combined with 10 μL of the molecule of interest (or the vehicle) and 100 μL of prewarmed 0.2% ellagic acid. Following a 4 min incubation at 37 °C, clotting was initiated by introducing 100 μL of prewarmed 0.025 M CaCl2, and the clotting time was recorded. In both assays, approximately nine or more concentrations of molecules were employed to generate concentration vs effect profiles. The data were then plotted against a quadratic trendline, enabling the estimation of the concentration required to double the clotting time. Clotting times were similarly measured using 10 μL of highly purified water (negative control). […]
# [6] = human FXIIa, Tris–HCl buffer pH 7.4, 37 °C
# T5 sequence (P00742 235-488 limits assumed): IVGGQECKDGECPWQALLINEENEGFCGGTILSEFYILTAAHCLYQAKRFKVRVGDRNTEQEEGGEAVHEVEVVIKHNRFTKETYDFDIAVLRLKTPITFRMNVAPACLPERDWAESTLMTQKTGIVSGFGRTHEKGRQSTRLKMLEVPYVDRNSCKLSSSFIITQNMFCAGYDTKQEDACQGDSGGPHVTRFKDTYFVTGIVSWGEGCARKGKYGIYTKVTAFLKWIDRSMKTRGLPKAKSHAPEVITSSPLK
# T5 sequence (P00742 41-179 partner limits assumed): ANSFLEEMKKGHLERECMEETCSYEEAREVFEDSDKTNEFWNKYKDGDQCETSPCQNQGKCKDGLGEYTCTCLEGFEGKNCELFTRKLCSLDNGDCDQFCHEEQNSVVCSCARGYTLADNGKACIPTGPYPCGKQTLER
# T3 sequence (P00740 227-461 limits assumed): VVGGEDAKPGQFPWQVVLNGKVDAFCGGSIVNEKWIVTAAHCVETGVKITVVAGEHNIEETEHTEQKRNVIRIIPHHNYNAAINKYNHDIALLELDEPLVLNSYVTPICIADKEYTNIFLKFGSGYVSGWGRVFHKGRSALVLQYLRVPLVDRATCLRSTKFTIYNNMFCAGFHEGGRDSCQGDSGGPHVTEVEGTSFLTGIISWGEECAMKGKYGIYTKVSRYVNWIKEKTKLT
# T3 sequence (P00740 47-191 partner limits assumed): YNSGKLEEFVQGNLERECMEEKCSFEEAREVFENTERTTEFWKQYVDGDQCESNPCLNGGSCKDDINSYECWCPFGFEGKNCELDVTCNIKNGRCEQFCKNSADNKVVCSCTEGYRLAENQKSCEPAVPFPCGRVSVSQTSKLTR
# T4 sequence (P03951 388-625 limits assumed): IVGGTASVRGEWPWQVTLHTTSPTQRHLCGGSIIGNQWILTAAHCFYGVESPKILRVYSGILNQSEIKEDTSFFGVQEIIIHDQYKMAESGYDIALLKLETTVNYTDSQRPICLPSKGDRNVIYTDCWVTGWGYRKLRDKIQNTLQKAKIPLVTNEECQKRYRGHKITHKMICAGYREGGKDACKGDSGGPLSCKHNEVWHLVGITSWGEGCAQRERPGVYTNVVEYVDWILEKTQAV
# T4 sequence (P03951 19-387 partner limits assumed): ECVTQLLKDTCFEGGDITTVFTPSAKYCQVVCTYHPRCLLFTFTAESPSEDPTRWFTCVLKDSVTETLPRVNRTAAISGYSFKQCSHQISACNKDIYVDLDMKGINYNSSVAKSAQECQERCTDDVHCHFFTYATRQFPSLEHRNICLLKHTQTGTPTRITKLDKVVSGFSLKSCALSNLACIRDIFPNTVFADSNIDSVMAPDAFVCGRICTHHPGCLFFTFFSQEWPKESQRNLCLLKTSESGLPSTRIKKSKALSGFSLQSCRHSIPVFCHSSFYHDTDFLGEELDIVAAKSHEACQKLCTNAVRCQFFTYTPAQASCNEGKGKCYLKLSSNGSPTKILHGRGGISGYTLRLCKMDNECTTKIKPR
Structure (SMILES),HS (Hill slope) (human FXIIa; human FXIIa),ΔY (%) efficacy of inhibition (human FXIIa; human FXIIa),IC50 (FXIa; FXIa),IC50 (human FXIIa),HS (Hill slope) (thrombin (factor IIa) [4]),ΔY (%) (thrombin (factor IIa) [4]),IC50 (thrombin (factor IIa) [4]),other results
"COC(=O)c1nc(N)n(C(=O)c2ccc(C(C)(C)C)cc2)n1 [RA, reference compound]",1.7 ± 0.4,105 ± 8%,–,–,–,–,–,IC50 (thrombin (factor IIa) [1]): 235 nM; IC50 (human FXIIa; [6]): 110 ± 10 nM; EC50 (human plasma [2]): 340000 nM
COC(=O)c1nc(N)n(C(=O)c2ccccc2Cl)n1 [compound 7],–,–,25900 ± 4400 nM,1700 nM,–,–,–,IC50 (FIXa): > 200000 nM
COC(=O)c1nc(N)n(C(=O)c2cc(OC)c(OC)c(OC)c2)n1 [compound 8],1.1 ± 0.1,100 ± 2%,14900 ± 1400 nM,45 ± 3 nM,0.9 ± 0.2,102.0 ± 4.5%,19 ± 4 nM,"fold increased potency regarding the effect on APTT (human plasma [3]; relative to RA): ~6 fold; selectivity index (IC50 enzyme/IC50 FXIIa) (FIXa; FIXa over FXIIa): >4000; IC50 (FIXa): > 180000 nM; HS (Hill slope) (FXa; FXa): 1.2 ± 0.2; ΔY (%) (FXa; FXa): 100.8 ± 2.7%; selectivity index (IC50 enzyme/IC50 FXIIa) (FXa; FXa over FXIIa): 1057.78; IC50 (FXa; FXa, pH 7.4, 37 °C): 47600 ± 5800 nM; HS (Hill slope) (FXIa; FXIa): 0.9 ± 0.1; ΔY (%) (FXIa; FXIa): 100.3 ± 3.1%; selectivity index (IC50 enzyme/IC50 FXIIa) (FXIa): 331.11; selectivity index (IC50 enzyme/IC50 FXIIa) (thrombin (factor IIa) [4]): 0.42"
COC(=O)c1nc(N)n(C(=O)c2ccccc2)n1 [compound 9],1.1 ± 0.1,92 ± 3%,> 50000 nM,–,1.1 ± 0.2,89 ± 5%,54 ± 8 nM,IC50 (human FXIIa; human FXIIa): 240 ± 10 nM; selectivity index (IC50 enzyme/IC50 FXIIa) (thrombin (factor IIa) [4]): 0.23
CC(C)(C)c1ccc(C(=O)n2ncnc2N)cc1 [compound 10],1.4 ± 0.7,82 ± 8%,–,–,–,–,–,"IC50 (human FXIIa; FXIIa, summary picture in supplement): 8500 nM; IC50 (human FXIIa; [6]): 8500 ± 1200 nM; fold less potent FXIIa inhibitor (human FXIIa; than inhibitor RA): 77.3 fold"
Cc1ccc(S(=O)(=O)n2cnc([N+](=O)[O-])n2)cc1 [compound 12],–,–,–,–,–,–,–,significant inhibitory activity against FXIIa in the screening (human FXIIa): none
O=C(O)c1nc(NS(=O)(=O)c2ccccc2[N+](=O)[O-])n[nH]1 [compound 13],–,–,–,–,–,–,–,effect on APTT (human plasma [3]; highest concentration of 2500 μM): did not affect; significant inhibitory activity against FXIIa in the screening (human FXIIa): none; effect on PT (human plasma [5]): did not affect
O=C(O)c1ncn(-c2ccccc2)n1 [compound 14],–,–,–,–,–,–,–,significant inhibitory activity against FXIIa in the screening (human FXIIa): none
O=C(O)Cc1nc(-c2ccccc2)n[nH]1 [compound 15],–,–,–,–,–,–,–,significant inhibitory activity against FXIIa in the screening (human FXIIa): none
COC(=O)c1nc(N)n(C(=O)c2ccc(Cl)cc2)n1 [compound 19],0.8 ± 0.1,102 ± 5%,–,7800 nM,–,–,–,fold decrease in FXIIa inhibition potency (human FXIIa; relative to inhibitor 7 (chlorine ortho to para)): ~4.6 fold
COC(=O)c1nc(N)n(C(=O)c2ccccc2Br)n1 [compound 20],0.8 ± 0.1,76 ± 5%,> 50000 nM,80 ± 10 nM,0.9 ± 0.1,113 ± 8%,90 ± 20 nM,selectivity index (IC50 enzyme/IC50 FXIIa) (FXIa): >625; subclass of inhibitor based on selectivity studies (human FXIIa): dual inhibitors of FXIIa as well as thrombin; selectivity index (IC50 enzyme/IC50 FXIIa) (thrombin (factor IIa) [4]): 1.13
COC(=O)c1nc(N)n(C(=O)c2ccc(Br)cc2)n1 [compound 21],0.5 ± 0.02,109 ± 2%,> 50000 nM,900 ± 100 nM,0.5 ± 0.02,112 ± 10%,900 ± 200 nM,selectivity index (IC50 enzyme/IC50 FXIIa) (FXIa): >55.56; fold decrease in FXIIa inhibition potency (human FXIIa; relative to inhibitor 20 (bromine ortho to para)): ~11.3 fold; subclass of inhibitor based on selectivity studies (human FXIIa): dual inhibitors of FXIIa as well as thrombin; selectivity index (IC50 enzyme/IC50 FXIIa) (thrombin (factor IIa) [4]): 1.00
COC(=O)c1nc(N)n(C(=O)c2ccc(F)cc2)n1 [compound 22],0.8 ± 0.1,74 ± 7%,> 50000 nM,32 ± 8 nM,1.2 ± 0.2,118 ± 7%,300 ± 50 nM,"EC50 (human plasma [3]; human plasma, read-out: APTT (EC×1.5), effective concentration to double the clotting time): 25000 to 75000 nM; selectivity index (IC50 enzyme/IC50 FXIIa) (FXIa): >1562.50; IC50 (human FXIIa; [6]): 32 ± 8 nM; fold increase in FXIIa inhibition potency (human FXIIa; relative to inhibitor 9): 7.5 fold; fold more potent FXIIa inhibitor (human FXIIa; than inhibitor RA): 3.4 fold; subclass of inhibitor based on selectivity studies (human FXIIa): more specific inhibitors of FXIIa; selectivity index (IC50 enzyme/IC50 FXIIa) (thrombin (factor IIa) [4]): 9.38"
Cc1cccc(C(=O)n2cnnc2N)c1 [compound 24],–,–,> 50000 nM,–,–,–,–,inhibition at 50 µM (thrombin (factor IIa) [4]; read-out: inhibition of thrombin at 50 μM): 43%
Cc1cc(C)cc(C(=O)n2cnnc2N)c1 [compound 26],–,–,–,–,–,–,> 50000 nM,–
COc1cc(OC)cc(C(=O)n2cnnc2N)c1 [compound 30],–,–,–,–,1.0 ± 0.3,53 ± 16%,250 ± 140 nM,–
CCOC(=O)c1nc(N)n(C(=O)c2ccccc2)n1 [compound 31],0.9 ± 0.1,91 ± 9%,–,7900 nM,–,–,–,–
COC(=O)c1nc(N)n(C(C)=O)n1 [compound 32],0.9 ± 0.2,67 ± 8%,–,6300 nM,–,–,–,–
